Test results: patent US20250152585A1, “PHARMACEUTICAL COMPOUND” (Duke Street Bio Limited, priority 2022, published 2025)
Where two headings read alike, the source gives them in different places.

Key:
[1] = biological target: T1, N-terminally FLAG-tagged PARP2 (amino acids 1-583) (Homo sapiens, UniProt Q9UGN5); test: PARP2 probe displacement HTRF assay; format: binding; details: binned Kd
T1 construct: N-terminally FLAG-tagged PARP2 (amino acids 1-583)
Protocol: Data analysis was performed identical as for PARP1.

[2] = biological target: T2, full length N-terminally FLAG-tagged PARP1 (Homo sapiens, UniProt P09874); test: PARP1 probe displacement HTRF assay; details: for Kd: binned Kd; for Selectivity: PARP1 over PARP2, ratio Kd (PARP2)/Kd (PARP1)
[3] = biological target: T2, full length N-terminally FLAG-tagged PARP1; test: PARP1 biochemical DELFIA assay (auto-PARylation); design: recombinant full length human N-terminally FLAG-tagged PARP1
[4] = binned IC50, biochemical auto-PARylation assay
[5] = read-out: PARP1 HTRF, PARP1 probe displacement HTRF
[6] = binned IC50, PARP1 biochemical DELFIA assay
[7] = read-out: PARP1 HTRF, probe displacement HTRF
[8] = PARP1 HTRF, PARP1 probe displacement HTRF

T1 sequence (Q9UGN5 whole entry, the tested form may be a part): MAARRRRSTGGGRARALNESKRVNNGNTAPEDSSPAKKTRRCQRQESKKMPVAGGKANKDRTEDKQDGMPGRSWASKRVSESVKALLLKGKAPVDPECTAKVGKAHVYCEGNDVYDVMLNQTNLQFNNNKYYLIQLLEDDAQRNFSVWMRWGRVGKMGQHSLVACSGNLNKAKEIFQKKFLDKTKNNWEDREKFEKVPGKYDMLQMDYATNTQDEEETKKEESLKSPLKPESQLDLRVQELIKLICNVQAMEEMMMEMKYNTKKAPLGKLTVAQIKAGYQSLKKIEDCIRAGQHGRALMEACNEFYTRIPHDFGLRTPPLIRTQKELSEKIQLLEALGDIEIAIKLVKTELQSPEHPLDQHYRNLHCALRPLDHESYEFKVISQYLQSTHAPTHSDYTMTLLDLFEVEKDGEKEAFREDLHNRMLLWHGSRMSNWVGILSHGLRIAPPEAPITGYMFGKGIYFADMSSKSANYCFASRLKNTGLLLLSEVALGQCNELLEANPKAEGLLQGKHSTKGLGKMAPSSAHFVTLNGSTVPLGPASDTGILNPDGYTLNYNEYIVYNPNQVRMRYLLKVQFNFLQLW
T2 sequence (P09874 whole entry): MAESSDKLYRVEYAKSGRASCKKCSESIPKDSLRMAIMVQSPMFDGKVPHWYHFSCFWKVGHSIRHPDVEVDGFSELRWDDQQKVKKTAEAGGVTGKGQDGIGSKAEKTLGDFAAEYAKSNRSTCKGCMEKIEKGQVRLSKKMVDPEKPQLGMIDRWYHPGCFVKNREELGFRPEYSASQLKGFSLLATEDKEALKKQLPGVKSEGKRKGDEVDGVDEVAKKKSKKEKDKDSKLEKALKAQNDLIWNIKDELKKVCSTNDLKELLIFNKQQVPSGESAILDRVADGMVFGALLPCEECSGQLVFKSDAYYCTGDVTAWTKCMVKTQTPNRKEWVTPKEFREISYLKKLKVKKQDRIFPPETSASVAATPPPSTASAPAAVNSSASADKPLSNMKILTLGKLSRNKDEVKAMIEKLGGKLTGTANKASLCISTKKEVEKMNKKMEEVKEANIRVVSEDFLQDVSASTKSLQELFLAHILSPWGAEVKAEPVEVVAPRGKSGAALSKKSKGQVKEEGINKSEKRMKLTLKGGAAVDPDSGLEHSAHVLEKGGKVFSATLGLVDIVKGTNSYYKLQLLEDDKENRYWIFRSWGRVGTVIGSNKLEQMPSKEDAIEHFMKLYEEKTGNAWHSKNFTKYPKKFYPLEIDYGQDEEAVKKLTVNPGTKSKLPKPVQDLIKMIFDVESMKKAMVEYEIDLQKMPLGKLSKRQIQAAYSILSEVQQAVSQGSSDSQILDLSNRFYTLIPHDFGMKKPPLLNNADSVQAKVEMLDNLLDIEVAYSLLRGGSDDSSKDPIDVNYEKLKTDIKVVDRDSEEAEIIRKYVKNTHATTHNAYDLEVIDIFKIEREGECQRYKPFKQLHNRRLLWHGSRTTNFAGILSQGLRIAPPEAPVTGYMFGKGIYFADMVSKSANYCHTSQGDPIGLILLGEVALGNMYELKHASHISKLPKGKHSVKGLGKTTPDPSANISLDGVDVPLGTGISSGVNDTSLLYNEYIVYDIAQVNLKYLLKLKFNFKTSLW

Kd ([1]; probe displacement HTRF)	Kd ([2]; PARP1 HTRF, probe displacement HTRF)	IC50 [3, 4]	Kd ([1]; PARP2 probe displacement HTRF)	Kd [2, 5]	IC50 [3, 6]	Kd [2, 7]	Kd [2, 8]	Compound	Selectivity ([2]; probe displacement HTRF)
–	–	–	> 10000 nM	< 10 nM	< 10 nM	–	–	CCc1ccc(C2CCN(C3CCN(c4ccc(C(=O)NC)nc4F)CC3)C2)[nH]c1=O (single isomer, unassigned) [Compound 151b, 5-(4-(3-(5-ethyl-6-oxo-1,6-dihydropyridin-2-yl)pyrrolidin-1-yl)piperidin-1-yl)-6-fluoro-N-methylpicolinamide]	+++ (+++ indicate a value of at least 100)
–	–	–	1000 to 10000 nM	10 to 100 nM	100 to 1000 nM	–	–	CNC(=O)c1ccc(N2CC(N3CCC(c4nc5ccccc5c(=O)[nH]4)C3)C2)cn1 (single isomer, unassigned) [Compound 61a]	+ (+ indicates a value of 10 to less than 50)
100 to 1000 nM	–	10 to 100 nM	–	–	–	10 to 100 nM	–	O=c1[nH]c(C2CCN(C3CCN(c4ccc(C5=NCCN5)cc4)CC3)C2)nc2ccccc12 (racemic) [Compound 307rac]	− (− indicates a value of less than 10)
–	–	–	> 10000 nM	10 to 100 nM	10 to 100 nM	–	–	CCc1nc(C(=O)NC)ccc1N1CCC(N2CCCC(c3nc4ccccc4c(=O)[nH]3)C2)CC1 (single isomer, unassigned) [Compound 112b]	+++ (+++ indicate a value of at least 100)
–	–	–	> 10000 nM	< 10 nM	< 10 nM	–	–	CNC(=O)c1ccc(N2CCC(N3CCOC(c4nc5ccccc5c(=O)[nH]4)C3)CC2)cn1 (single isomer, unassigned) [Compound 58a]	+++ (+++ indicate a value of at least 100)
–	–	–	100 to 1000 nM	10 to 100 nM	100 to 1000 nM	–	–	O=C(NCCF)c1ccc(N2CCC(N3CCCC(c4nc5ccccc5c(=O)[nH]4)C3)CC2)cn1 (single isomer, unassigned) [Compound 110b]	− (− indicates a value of less than 10)
10 to 100 nM	–	< 10 nM	–	–	–	< 10 nM	–	CNC(=O)c1ccc(N2CCC(N3CCC(c4nc5ccc(F)c(F)c5c(=O)[nH]4)C3)CC2)cn1 (single isomer, unassigned) [Compound 222b]	+++ (+++ indicate a value of at least 100)
100 to 1000 nM	–	< 10 nM	–	–	–	< 10 nM	–	CNC(=O)c1ccc(N2CCC(N3CCC(c4cc5ccc(F)cc5c(=O)[nH]4)C3)CC2)c(C#N)n1 (single isomer, unassigned) [Compound 396a]	+++ (+++ indicate a value of at least 100)
100 to 1000 nM	–	10 to 100 nM	–	–	–	100 to 1000 nM	–	O=c1[nH]c(C2CCN(C3CCN(c4ccc(-c5nnn[nH]5)nc4)CC3)C2)nc2ccccc12 (racemic) [Compound 263rac]	− (− indicates a value of less than 10)
100 to 1000 nM	–	< 10 nM	–	–	–	< 10 nM	–	CNC(=O)c1ccc(N2CCC(N3CCC(c4cc5ccc(F)cc5c(=O)[nH]4)C3)CC2)c(C#N)n1 (single isomer, unassigned) [Compound 396b]	+++ (+++ indicate a value of at least 100)
–	–	–	100 to 1000 nM	< 10 nM	< 10 nM	–	–	CNC(=O)c1ccc(N2CCC(N3CCC(c4cc5cccc(F)c5c(=O)[nH]4)C3)CC2)c(C)n1 (single isomer, unassigned) [Compound 206a]	+++ (+++ indicate a value of at least 100)

The next lines start with the compound.

Compound	Kd ([1]; probe displacement HTRF)	Kd ([2]; PARP1 HTRF, probe displacement HTRF)	IC50 [3, 4]	Kd ([1]; PARP2 probe displacement HTRF)	Kd [2, 5]	IC50 [3, 6]	Kd [2, 7]	Kd [2, 8]	Selectivity ([2]; probe displacement HTRF)
CNC(=O)c1ccc(N2CCC(N3CC(c4cc5cccc(F)c5c(=O)[nH]4)C(F)(F)C3)CC2)cn1 (racemic) [Compound 393rac, 5-(4-(3,3-difluoro-4-(8-fluoro-1-oxo-1,2-dihydroisoquinolin-3-yl)pyrrolidin-1-yl)piperidin-1-yl)-N-methylpicolinamide]	1000 to 10000 nM	< 10 nM	< 10 nM	–	–	–	–	–	+++ (+++ indicate a value of at least 100)
CC(=O)Nc1ccc(N2CCC(N3CCC(c4cc5ccccc5c(=O)[nH]4)C3)CC2)cn1 (single isomer, unassigned) [Compound 306a]	1000 to 10000 nM	–	100 to 1000 nM	–	–	–	100 to 1000 nM	–	+ (+ indicates a value of 10 to less than 50)
CNC(=O)c1ccc(N2CCC(N3CCC(c4cc5c(c(=O)[nH]4)CCCC5)C3)CC2)cn1 (racemic) [Compound 336rac]	10 to 100 nM	–	< 10 nM	–	–	–	< 10 nM	–	++ (++ indicates a value of 50 to less than 100)
O=c1[nH]c(CC2CCCN(C3CCC(F)(F)CC3)C2)nc2ccccc12 (single isomer, unassigned) [Compound 11b]	–	–	–	1000 to 10000 nM	100 to 1000 nM	100 to 1000 nM	–	–	− (− indicates a value of less than 10)
CNC(=O)c1ccc(N2CCC(N3CCC(c4nc5sc6c(c5c(=O)[nH]4)CCC6)C3)CC2)cn1 (single isomer, unassigned) [Compound 189a]	–	–	–	100 to 1000 nM	10 to 100 nM	10 to 100 nM	–	–	− (− indicates a value of less than 10)
CNC(=O)c1ccc(N2CCC(N3CCC(c4cc5cc(O)ccc5c(=O)[nH]4)C3)CC2)cn1 (single isomer, unassigned) [Compound 357b]	1000 to 10000 nM	–	10 to 100 nM	–	–	–	< 10 nM	–	+++ (+++ indicate a value of at least 100)
CNC(=O)c1ccc(N2CCC(N3CCC(c4ccc(OC)c(=O)[nH]4)C3)CC2)cn1 (single isomer, unassigned) [Compound 148b]	–	–	–	> 10000 nM	1000 to 10000 nM	1000 to 10000 nM	–	–	− (− indicates a value of less than 10)
CNC(=O)c1ccc(OCCCN2CCCC(c3nc4ccccc4c(=O)[nH]3)C2)cn1 (single isomer, unassigned) [Compound 7a]	–	–	–	100 to 1000 nM	< 10 nM	10 to 100 nM	–	–	+++ (+++ indicate a value of at least 100)
CCc1ccc(C2(F)CCN(C3CCN(c4ccc(C(=O)NC)nc4F)CC3)C2)[nH]c1=O (racemic) [Compound 415rac]	> 10000 nM	–	10 to 100 nM	–	–	–	< 10 nM	–	+++ (+++ indicate a value of at least 100)
CNC(=O)c1ncc(N2CCC(N3CCC(c4cc5ccc(F)cc5c(=O)[nH]4)C3)CC2)c(C(F)(F)F)n1 (single isomer, unassigned) [Compound 266a]	100 to 1000 nM	–	< 10 nM	–	–	–	< 10 nM	–	+++ (+++ indicate a value of at least 100)
CCc1ccc(C2CCN(C3CCN(c4ccc(C#N)nc4)CC3)C2)[nH]c1=O (single isomer, unassigned) [Compound 326a]	1000 to 10000 nM	–	100 to 1000 nM	–	–	–	100 to 1000 nM	–	+ (+ indicates a value of 10 to less than 50)
CNC(=O)c1ccc(N2CCC(N3CCC(c4nc5c(F)cc(F)cc5c(=O)[nH]4)C3)CC2)cn1 (single isomer, unassigned) [Compound 181a]	–	–	–	100 to 1000 nM	10 to 100 nM	10 to 100 nM	–	–	+ (+ indicates a value of 10 to less than 50)
CC(=O)Nc1ccc(N2CCC(N3CCC(c4cc5ccccc5c(=O)[nH]4)C3)CC2)cc1 (single isomer, unassigned) [Compound 289b]	100 to 1000 nM	–	< 10 nM	–	–	–	10 to 100 nM	–	+ (+ indicates a value of 10 to less than 50)
CC(=O)Nc1ccc(N2CCC(N3CCC(c4cc5ccccc5c(=O)[nH]4)C3)CC2)cn1 (single isomer, unassigned) [Compound 306b]	100 to 1000 nM	–	< 10 nM	–	–	–	< 10 nM	–	+++ (+++ indicate a value of at least 100)
CCc1ccc(C2CCN(C3CCN(c4ccc(C#N)cc4Cl)CC3)C2)[nH]c1=O (single isomer, unassigned) [Compound 377a]	> 10000 nM	–	10 to 100 nM	–	–	–	10 to 100 nM	–	+++ (+++ indicate a value of at least 100)
CNC(=O)c1ccc(N2CCC(n3cc(-c4nc5ccccc5c(=O)[nH]4)cn3)CC2)cn1 [Compound 17, N-methyl-5-(4-(4-(4-oxo-3,4-dihydroquinazolin-2-yl)-1H-pyrazol-1-yl)piperidin-1-yl)picolinamide]	–	–	–	> 10000 nM	–	10 to 100 nM	–	10 to 100 nM	+++ (+++ indicate a value of at least 100)
N#Cc1ccc(N2CCC(N3CCC(c4cc5ccc(F)cc5c(=O)[nH]4)C3)CC2)c(Cl)c1 (single isomer, unassigned) [Compound 386b]	1000 to 10000 nM	–	< 10 nM	–	–	–	< 10 nM	–	+++ (+++ indicate a value of at least 100)
CCc1ccc(C2CCN(C3CCN(c4ccc(C(=O)NC)nn4)CC3)C2)[nH]c1=O (single isomer, unassigned) [Compound 210b]	–	–	–	1000 to 10000 nM	< 10 nM	< 10 nM	–	–	+++ (+++ indicate a value of at least 100)
CNC(=O)c1ccc(N2CCC(CN3CC4(c5nc6ccccc6c(=O)[nH]5)CC3C4)CC2)cn1 [Compound 193]	–	–	–	1000 to 10000 nM	–	10 to 100 nM	–	10 to 100 nM	+++ (+++ indicate a value of at least 100)
CNC(=O)c1ccc(N2CCC(N3CCC(c4cc5ccc(Cl)cc5c(=O)[nH]4)C3)CC2)cn1 (single isomer, unassigned) [Compound 129a]	–	–	–	1000 to 10000 nM	< 10 nM	< 10 nM	–	–	+++ (+++ indicate a value of at least 100)
